Test results from ChEMBL document CHEMBL1146891, “Preparation of 1-(3-aminobenzo[d]isoxazol-5-yl)-1H-pyrazolo[4,3-d]pyrimidin-7(6H)-ones as potent, selective, and efficacious inhibitors of coagulation factor Xa” (Bioorg Med Chem Lett, 2006).

What was measured:
[1] = biological target: T1, Coagulation factor X (Homo sapiens, UniProt P00742); test: Binding affinity to human f10a
[2] = Clearance in dog at 0.5 mg/kg, iv and 0.2 mg/kg, po; type: ADME, organism-based, Canis lupus familiaris; conditions: in vivo
[3] = Volume of distribution in dog at 0.5 mg/kg, iv and 0.2 mg/kg, po; type: ADME, organism-based, Canis lupus familiaris; conditions: in vivo, read-out: Vdss
[4] = Half life in dog at 0.5 mg/kg, iv and 0.2 mg/kg, po; type: ADME, organism-based, Canis lupus familiaris; conditions: in vivo
[5] = Bioavailability in dog at 0.5 mg/kg, iv and 0.2 mg/kg, po; type: ADME, organism-based, Canis lupus familiaris; conditions: in vivo
[6] = Apparent permeability in Caco-2 cells; type: ADME, cell-based; conditions: human
[7] = biological target: T1, Coagulation factor X; test: Anticoagulant activity in human plasma measured as activated partial thromboplastin time; type: functional, cell-free
[8] = biological target: T2, Coagulation factor VII/tissue factor (Homo sapiens) (UniProt P08709+P13726); test: Anticoagulant activity in human plasma measured as prothrombin time; type: functional, cell-free
[9] = organism: Homo sapiens; test: Selectivity for f10a over chymotrypsin
[10] = biological target: Thrombin and coagulation factor X (Homo sapiens) (UniProt P00734+P00742); test: Selectivity for f10a over thrombin; type: protein assay
[11] = organism: Homo sapiens; test: Selectivity for f10a over trypsin
[12] = organism: Homo sapiens; test: Selectivity for f10a over activated protein C
[13] = biological target: Coagulation factor VII and X (Homo sapiens) (UniProt P00742+P08709); test: Selectivity for f10a over f7a; type: protein assay
[14] = organism: Homo sapiens; test: Selectivity for f10a over plasmin
[15] = organism: Homo sapiens; test: Selectivity for f10a over tPA
[16] = biological target: Coagulation factor X and plasma kallikrein (Homo sapiens) (UniProt P03952+P00742); test: Selectivity for f10a over plasma kallikrein; type: cell-free
[17] = organism: Homo sapiens; test: Selectivity for f10a over urokinase
[18] = Stability at pH 1.0; type: physicochemical; conditions: buffer
[19] = Stability at pH 4.0; type: physicochemical; conditions: buffer
[20] = biological target: Prothrombin (Homo sapiens, UniProt P00734); test: Binding affinity to human thrombin
[21] = biological target: Trypsin (Homo sapiens, UniProt P07477+P07478+P35030); test: Binding affinity to human trypsin; type: protein assay
[22] = biological target: Vitamin K-dependent protein C (Homo sapiens, UniProt P04070); test: Binding affinity to human activated protein C
[23] = biological target: Coagulation factor IX (Homo sapiens, UniProt P00740); test: Binding affinity to human f9a
[24] = biological target: Plasminogen (Homo sapiens, UniProt P00747); test: Binding affinity to human plasmin
[25] = biological target: Tissue-type plasminogen activator (Homo sapiens, UniProt P00750); test: Binding affinity to human tPA
[26] = biological target: Urokinase-type plasminogen activator (Homo sapiens, UniProt P00749); test: Binding affinity to human urokinase
[27] = biological target: Chymotrypsinogen B (Homo sapiens, UniProt P17538); test: Binding affinity to human chymotrypsin
[28] = biological target: T3, Coagulation factor X (Oryctolagus cuniculus, UniProt O19045); test: Binding affinity to rabbit f10a
T3 sequence (O19045 whole entry): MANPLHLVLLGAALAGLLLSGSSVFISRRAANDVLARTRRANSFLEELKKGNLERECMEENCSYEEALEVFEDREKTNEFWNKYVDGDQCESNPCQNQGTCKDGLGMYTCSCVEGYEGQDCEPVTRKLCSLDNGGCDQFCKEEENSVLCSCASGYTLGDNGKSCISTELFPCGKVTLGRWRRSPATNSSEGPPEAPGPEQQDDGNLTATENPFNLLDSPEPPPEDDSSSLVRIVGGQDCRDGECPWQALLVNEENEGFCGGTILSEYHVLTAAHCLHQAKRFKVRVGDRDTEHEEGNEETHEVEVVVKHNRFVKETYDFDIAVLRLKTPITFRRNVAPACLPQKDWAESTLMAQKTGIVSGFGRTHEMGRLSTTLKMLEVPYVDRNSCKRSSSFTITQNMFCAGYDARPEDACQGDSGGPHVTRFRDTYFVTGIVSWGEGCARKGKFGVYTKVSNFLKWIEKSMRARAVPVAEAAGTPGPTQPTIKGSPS

[29] = system: Oryctolagus cuniculus; test: Inhibition of thrombus formation in iv dosed rabbit arterio-venous shunt model; type: functional, organism-based
[30] = Protein binding in rabbit plasma; type: ADME, organism-based, Oryctolagus cuniculus; conditions: read-out: PPB (converted)
[31] = biological target: T2, Coagulation factor VII/tissue factor (Homo sapiens); test: Anticoagulant activity in rabbit plasma measured as prothrombin time; type: functional, cell-free; conditions: Oryctolagus cuniculus, target entry is the homologue from another species

T1 sequence (P00742 41-179 limits assumed): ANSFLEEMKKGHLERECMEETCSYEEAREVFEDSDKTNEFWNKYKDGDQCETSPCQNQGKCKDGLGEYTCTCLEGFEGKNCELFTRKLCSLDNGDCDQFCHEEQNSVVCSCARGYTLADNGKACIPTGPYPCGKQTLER
T1 sequence (P00742 235-488 limits assumed): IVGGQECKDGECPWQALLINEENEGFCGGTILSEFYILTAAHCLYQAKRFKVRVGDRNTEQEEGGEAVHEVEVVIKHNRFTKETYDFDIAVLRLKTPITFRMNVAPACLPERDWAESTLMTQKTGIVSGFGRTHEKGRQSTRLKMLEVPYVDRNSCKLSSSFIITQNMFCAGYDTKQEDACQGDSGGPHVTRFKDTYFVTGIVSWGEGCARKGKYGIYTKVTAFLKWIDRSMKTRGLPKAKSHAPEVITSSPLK
Sequence of Coagulation factor X and plasma kallikrein (Homo sapiens) (P00742 whole entry, looked up): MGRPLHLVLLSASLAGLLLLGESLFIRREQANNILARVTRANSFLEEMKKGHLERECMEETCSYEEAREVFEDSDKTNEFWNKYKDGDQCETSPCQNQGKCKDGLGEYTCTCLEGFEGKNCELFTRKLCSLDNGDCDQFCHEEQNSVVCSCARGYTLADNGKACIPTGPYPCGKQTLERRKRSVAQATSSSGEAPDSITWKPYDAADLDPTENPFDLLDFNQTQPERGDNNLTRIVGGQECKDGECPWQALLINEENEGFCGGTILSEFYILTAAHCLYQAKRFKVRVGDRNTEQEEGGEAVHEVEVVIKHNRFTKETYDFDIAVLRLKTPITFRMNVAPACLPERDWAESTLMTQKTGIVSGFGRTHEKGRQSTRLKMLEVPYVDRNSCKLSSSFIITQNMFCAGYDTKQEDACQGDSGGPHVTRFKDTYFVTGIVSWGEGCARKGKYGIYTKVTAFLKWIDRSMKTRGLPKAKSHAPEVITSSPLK
Sequence of Coagulation factor X and plasma kallikrein (Homo sapiens) (P03952 whole entry, looked up): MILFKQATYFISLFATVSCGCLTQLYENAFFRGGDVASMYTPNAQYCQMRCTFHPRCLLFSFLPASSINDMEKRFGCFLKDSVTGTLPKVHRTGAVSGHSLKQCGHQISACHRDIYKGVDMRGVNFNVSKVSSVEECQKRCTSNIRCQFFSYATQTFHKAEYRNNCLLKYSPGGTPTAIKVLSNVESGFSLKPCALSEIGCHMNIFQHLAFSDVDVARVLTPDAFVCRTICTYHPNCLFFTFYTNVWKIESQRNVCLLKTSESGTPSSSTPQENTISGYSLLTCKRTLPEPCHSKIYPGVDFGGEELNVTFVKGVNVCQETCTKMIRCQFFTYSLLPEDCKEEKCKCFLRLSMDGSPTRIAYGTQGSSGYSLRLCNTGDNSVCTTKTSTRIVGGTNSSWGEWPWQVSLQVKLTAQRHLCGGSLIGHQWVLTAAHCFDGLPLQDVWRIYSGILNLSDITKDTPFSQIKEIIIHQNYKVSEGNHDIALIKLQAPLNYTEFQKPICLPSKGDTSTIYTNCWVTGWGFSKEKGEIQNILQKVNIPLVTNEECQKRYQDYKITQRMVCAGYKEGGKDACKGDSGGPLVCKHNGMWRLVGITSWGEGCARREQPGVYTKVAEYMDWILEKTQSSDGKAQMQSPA
Sequence of Thrombin and coagulation factor X (Homo sapiens) (P00742 whole entry, looked up, other chains not shown): as the sequence (P00742 whole entry, looked up) above
Sequence of Vitamin K-dependent protein C (P04070 43-197 limits assumed): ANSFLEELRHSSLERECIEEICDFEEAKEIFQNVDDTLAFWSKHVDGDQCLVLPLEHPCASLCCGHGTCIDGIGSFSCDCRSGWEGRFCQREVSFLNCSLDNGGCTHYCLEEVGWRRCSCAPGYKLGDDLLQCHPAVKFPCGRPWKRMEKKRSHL
Sequence of Vitamin K-dependent protein C (P04070 212-461 limits assumed): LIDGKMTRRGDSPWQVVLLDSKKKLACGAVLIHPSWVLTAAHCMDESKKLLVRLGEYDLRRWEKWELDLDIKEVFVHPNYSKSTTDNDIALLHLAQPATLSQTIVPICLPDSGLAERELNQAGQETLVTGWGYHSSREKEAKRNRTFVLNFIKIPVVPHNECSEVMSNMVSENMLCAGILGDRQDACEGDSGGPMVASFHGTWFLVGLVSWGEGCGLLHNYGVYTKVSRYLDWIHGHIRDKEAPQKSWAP
Sequence of Coagulation factor IX (P00740 47-191 limits assumed): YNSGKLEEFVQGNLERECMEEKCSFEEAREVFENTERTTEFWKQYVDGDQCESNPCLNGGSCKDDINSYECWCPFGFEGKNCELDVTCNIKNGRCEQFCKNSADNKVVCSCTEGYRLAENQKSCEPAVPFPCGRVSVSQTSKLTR
Sequence of Coagulation factor IX (P00740 227-461 limits assumed): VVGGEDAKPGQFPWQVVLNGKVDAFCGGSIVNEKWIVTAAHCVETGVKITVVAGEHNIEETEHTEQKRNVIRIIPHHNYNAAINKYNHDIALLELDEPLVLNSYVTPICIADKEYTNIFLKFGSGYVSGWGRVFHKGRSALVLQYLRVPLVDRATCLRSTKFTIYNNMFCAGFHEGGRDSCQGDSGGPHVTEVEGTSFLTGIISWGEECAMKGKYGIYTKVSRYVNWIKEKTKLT
Sequence of Tissue-type plasminogen activator (P00750 whole entry): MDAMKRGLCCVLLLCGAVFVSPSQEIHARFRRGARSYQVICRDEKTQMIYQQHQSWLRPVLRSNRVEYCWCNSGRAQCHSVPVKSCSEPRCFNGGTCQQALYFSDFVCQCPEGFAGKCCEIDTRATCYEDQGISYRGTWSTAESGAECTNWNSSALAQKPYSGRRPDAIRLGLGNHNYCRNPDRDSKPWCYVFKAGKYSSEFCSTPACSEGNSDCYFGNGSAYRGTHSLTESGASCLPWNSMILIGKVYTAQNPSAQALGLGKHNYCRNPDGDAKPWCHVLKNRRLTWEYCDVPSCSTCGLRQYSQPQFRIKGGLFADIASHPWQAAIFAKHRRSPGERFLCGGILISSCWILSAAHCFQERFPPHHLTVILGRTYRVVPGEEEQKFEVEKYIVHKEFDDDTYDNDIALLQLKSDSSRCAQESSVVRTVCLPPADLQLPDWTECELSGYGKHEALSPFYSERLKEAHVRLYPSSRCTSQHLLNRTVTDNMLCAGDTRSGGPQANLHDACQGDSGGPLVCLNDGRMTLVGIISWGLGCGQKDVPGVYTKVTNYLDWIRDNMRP
Sequence of Chymotrypsinogen B (P17538 34-164 limits assumed, other chains not shown): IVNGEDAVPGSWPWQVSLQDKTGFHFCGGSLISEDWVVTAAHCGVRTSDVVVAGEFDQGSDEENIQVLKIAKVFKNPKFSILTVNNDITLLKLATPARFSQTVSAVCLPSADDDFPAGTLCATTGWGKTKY
Sequence of Chymotrypsinogen B (P17538 167-263 limits assumed, other chains not shown): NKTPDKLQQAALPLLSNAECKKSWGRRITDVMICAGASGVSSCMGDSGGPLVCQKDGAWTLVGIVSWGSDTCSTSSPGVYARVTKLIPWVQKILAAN
Sequence of Plasminogen (P00747 97-580 limits assumed): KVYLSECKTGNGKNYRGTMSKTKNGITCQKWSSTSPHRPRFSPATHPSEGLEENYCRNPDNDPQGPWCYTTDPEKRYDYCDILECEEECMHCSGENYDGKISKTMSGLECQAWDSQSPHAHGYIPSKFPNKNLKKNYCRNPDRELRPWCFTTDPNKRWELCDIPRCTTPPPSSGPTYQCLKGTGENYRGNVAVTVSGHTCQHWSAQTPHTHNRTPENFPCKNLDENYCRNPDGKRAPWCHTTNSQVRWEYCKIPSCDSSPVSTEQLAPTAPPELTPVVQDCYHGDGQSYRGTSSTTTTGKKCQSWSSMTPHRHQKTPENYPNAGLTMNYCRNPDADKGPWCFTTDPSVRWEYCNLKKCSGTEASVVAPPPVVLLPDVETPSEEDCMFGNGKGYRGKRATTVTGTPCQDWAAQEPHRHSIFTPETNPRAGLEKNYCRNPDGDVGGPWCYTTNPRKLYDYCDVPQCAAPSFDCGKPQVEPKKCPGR
Sequence of Plasminogen (P00747 581-810 limits assumed): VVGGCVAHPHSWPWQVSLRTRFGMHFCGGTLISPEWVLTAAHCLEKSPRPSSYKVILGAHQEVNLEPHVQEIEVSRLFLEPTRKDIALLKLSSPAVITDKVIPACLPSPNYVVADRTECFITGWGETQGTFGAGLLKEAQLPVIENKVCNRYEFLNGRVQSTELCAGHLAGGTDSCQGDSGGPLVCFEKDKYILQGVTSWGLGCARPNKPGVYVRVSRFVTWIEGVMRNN

In the case of CN(C)Cc1ccccc1-c1ccc(-c2cnc3c(C(F)(F)F)nn(-c4ccc5onc(N)c5c4)c3c2O)cc1, the Ki [1] is reported as 3.2 nM.
With Cc1nn(-c2ccc3onc(N)c3c2)c2c(=O)n(-c3ccc(-c4ccccc4CN(C)C)cc3)c(C)nc12.O=C(O)C(F)(F)F the clearance [2] was 28.3 mL/min/kg, the Vd [3] was 8.9 L/kg and the half-life [4] was 4.2 h. It also gave a bioavailability [5] of 23% and a Papp [6] of 6.1 ×10⁻⁶ cm/s.
In the case of Nc1noc2ccc(-n3nc(C(F)(F)F)c4c3C(=O)N(c3ccc(-c5ccccc5CN5CC[C@@H](O)C5)cc3)CN4)cc12, the 2aPTT [7] is reported as 2.9 µM, the 2PT [8] is reported as 1.6 µM and the Ratio Ki [9] is reported as > 1000. The Ratio Ki [10] was > 500, the Ratio Ki [11] was > 1000 and the Ratio Ki [12] was > 1000. The Ratio Ki [13] was > 1000, the Ratio Ki [14] was > 1000 and the Ratio Ki [15] was > 1000. The Ratio Ki [16] was > 1000 and the Ratio Ki [17] was > 1000.
For Cc1nn(-c2ccc3onc(N)c3c2)c2c(=O)n(-c3ccc(-c4ccccc4CN4CC[C@@H](O)C4)cc3)c(C)nc12.O=C(O)C(F)(F)F, the clearance [2] was 20 mL/min/kg, the Vd [3] was 6.6 L/kg and the half-life [4] was 3.8 h. It also gave a bioavailability [5] of 48% and a Papp [6] of 4.7 ×10⁻⁶ cm/s.
Cc1nn(-c2ccc3onc(N)c3c2)c2c(=O)n(-c3ccc(-c4ccccc4CN(C)C)cc3)cnc12 [listing 1 of 2 here] gave a 2aPTT [7] of 2.1 µM and a 2PT [8] of 1.3 µM.
Work on Cc1nn(-c2ccc3onc(N)c3c2)c2c(=O)n(-c3ccc(-c4ccccc4CN(C)C(C)C)cc3)c(C)nc12 yielded a Ki [1] of 0.35 nM, a 2aPTT [7] of 2 µM and a 2PT [8] of 4 µM.
Compound Cc1nn(-c2ccc3onc(N)c3c2)c2c(=O)n(-c3ccc(-c4ccccc4CN4CCCC4)cc3)cnc12 has a Ki [1] of 1.3 nM, a 2aPTT [7] of 1.6 µM and a 2PT [8] of 1.1 µM.
Compound Cc1nn(-c2ccc3onc(N)c3c2)c2c(=O)n(-c3ccc(-c4ccccc4CN(C)C)cc3)cnc12 [listing 2 of 2 here] has a Ki [1] of 0.53 nM, a Stability [18] of 97.2% and a Stability [19] of 90.1%.
In the case of Cc1nc2c(C(F)(F)F)nn(-c3ccc4onc(N)c4c3)c2c(=O)n1-c1ccc(-c2ccccc2CN(C)C)cc1 [listing 1 of 2 here], the Ki [20] is reported as 130 nM, the Ki [21] is reported as > 4200 nM and the Ki [22] is reported as > 37000 nM. The Ki [23] was 37000 nM, the Ki [24] was > 25000 nM and the Ki [25] was > 40000 nM. The Ki [26] was > 40000 nM, the Ki [27] was > 11000 nM and the Ki [28] was 0.2 nM. For the same compound, the ID50 [29] was 1.9 µmol/kg/h, the IC50 ([29]; Oryctolagus cuniculus) was 290 nM and the fraction unbound [30] was 0.03.
Cc1nc2c(C(F)(F)F)nn(-c3ccc4onc(N)c4c3)c2c(=O)n1-c1ccc(-c2ccccc2CN(C)C)cc1 [listing 2 of 2 here] gave a 2aPTT [7] of 9.2 µM, a 2PT [8] of 4.1 µM and a 2PT [31] of 2.7 µM.
Work on Cc1nc2c(C(F)(F)F)nn(-c3ccc4onc(N)c4c3)c2c(=O)n1-c1ccc(-c2ccccc2CN2CC[C@@H](O)C2)cc1.O=C(O)C(F)(F)F yielded a clearance [2] of 10 mL/min/kg, a Vd [3] of 6.6 L/kg and a half-life [4] of 8.4 h. The bioavailability [5] was 58%.
Work on Cc1nc2c(C(F)(F)F)nn(-c3ccc4onc(N)c4c3)c2c(=O)n1-c1ccc(-c2ccccc2CN(C)C)cc1.O=C(O)C(F)(F)F yielded a clearance [2] of 11.7 mL/min/kg, a Vd [3] of 13 L/kg and a half-life [4] of 14 h. For the same compound, the bioavailability [5] was 63% and the Papp [6] was 19 ×10⁻⁶ cm/s.
Compound Cc1nc2c(C(F)(F)F)nn(-c3ccc4onc(N)c4c3)c2c(=O)n1-c1ccc(-c2ccccc2CNCC2CC2)cc1 has a Ki [1] of 0.5 nM, a 2aPTT [7] of 18.6 µM and a 2PT [8] of 10.9 µM.
For CCOC(=O)c1nn(-c2ccc3onc(N)c3c2)c2c(=O)n(-c3ccc(-c4ccccc4CN4CCCC4)cc3)cnc12, the Ki [1] was 1.6 nM, the 2aPTT [7] was 1.6 µM and the 2PT [8] was 2.3 µM.
Work on Cc1nn(-c2ccc3onc(N)c3c2)c2c(=O)n(-c3ccc(-c4ccccc4CN(C)C)cc3)c(C)nc12 yielded a 2aPTT [7] of 1.7 µM, a 2PT [8] of 1.4 µM and a 2PT [31] of 1.8 µM. The Ratio Ki [9] was > 1000, the Ratio Ki [10] was > 500 and the Ratio Ki [11] was > 1000. The Ratio Ki [12] was > 1000, the Ratio Ki [13] was > 1000 and the Ratio Ki [14] was > 1000. For the same compound, the Ratio Ki [15] was > 1000, the Ratio Ki [16] was > 1000 and the Ratio Ki [17] was > 1000.
Nc1noc2ccc(-n3nc(C(F)(F)F)c4[nH]c(=O)n(-c5ccc(-c6ccccc6CN6CCC(O)CC6)cc5)c(=O)c43)cc12 gave a Ki [1] of 0.22 nM, a 2aPTT [7] of 352 µM and a 2PT [8] of 92.6 µM.
Compound Cc1nn(-c2ccc3onc(N)c3c2)c2c(=O)n(-c3ccc(-c4ccccc4CNCC4CC4)cc3)cnc12 has a Ki [1] of 1.7 nM, a 2aPTT [7] of 8.1 µM and a 2PT [8] of 3.1 µM.
